Results on seven molecules are retold here after PMC11214487, “YZL-51N functions as a selective inhibitor of SIRT7 by NAD^+ competition to impede DNA damage repair” (iScience, 2024).

The test system of test [1] is HCT116 cells.
Description: Cells were seeded into 96 well plates (4,000 cells/well). […] The cells were then washed and re-cultured in fresh medium for 48 h. […] Formazan were generated by the addition of 100 μL DMSO and shaking for 30 min. The absorbance of samples was measured at 570 nm using a microtiter plate reader (BioTek).
Test [2] deals with T1, SIRT7 (Homo sapiens, UniProt Q9NRC8).
T1 construct: His-tagged full length SIRT7 protein expression from BL21 bacterial cells; His; made in house; host or cells: E. coli BL21
T1 sequence (Q9NRC8 1-400): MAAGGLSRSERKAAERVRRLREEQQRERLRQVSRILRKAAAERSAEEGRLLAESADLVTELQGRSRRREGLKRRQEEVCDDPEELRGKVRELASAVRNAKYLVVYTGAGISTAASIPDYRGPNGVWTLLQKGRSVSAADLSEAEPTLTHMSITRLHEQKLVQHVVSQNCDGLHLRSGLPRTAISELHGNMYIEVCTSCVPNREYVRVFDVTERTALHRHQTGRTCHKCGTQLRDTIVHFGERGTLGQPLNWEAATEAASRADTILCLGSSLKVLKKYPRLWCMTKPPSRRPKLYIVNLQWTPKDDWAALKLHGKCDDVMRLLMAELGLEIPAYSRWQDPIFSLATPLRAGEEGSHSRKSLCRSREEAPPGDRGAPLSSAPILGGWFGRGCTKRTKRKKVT
The experiment in a line: Fluor de Lys (FDL) SIRT7 deacetylase assay. In kind it is biochemical. To be noted: for inhibition at 50 µM: 50 μM compound, 37°C, 90 min; for IC50: 0.5 mM NAD+, read-out: FDL assay SIRT7 inhibition IC50; for Dose-dependent inhibition of SIRT7: FDL assay, Figure S5. An excerpt: To assess SIRT7 deacetylase activity using Fluor de Lys (FDL) assays, the peptide […]∗QLAGGK was synthesized and characterized as a substrate using fluorophore 7-methoxycoumarin-4-acetic acid (∗, MCA) (Figures 1A, S1A, and S1B). In the presence of both SIRT7 and NAD^+, a luminescence response was detected in the linear range (y = 31.88x + 2396, R^2 = 0.9742) (Figure 1B). We screened our preserved library of 242 natural products to find potential SIRT7 inhibitors.
For in vitro analysis of SIRT7 deacetylation, the reaction system contained 10 μg His-SIRT7, 0.5 mM NAD^+, 10 μM […](MCA)QLAGGK (synthesized by QYAOBIO; details in the supplementary files), 50 μM potential compound or 3 mM NAM, and assay buffer (10 mM Tris-HCl pH 8.0, 4 mM MgCl2, 0.2 mM DTT and 10% Glycerol). The deacetylation reactions were incubated at 37°C for 90 min. The fluorescence intensity was measured with a microplate reader (Synergy H4 Hybrid Reader, Biotek) at an excitation wavelength of 260 nm and detected at an emission spectrum of 300–600 nm. The IC50 values were calculated at 450 nm emission by GraphPad Prism 8.

Test [3] concerns the target T1, SIRT7. As to the kind of experiment: Dot blot assay of SIRT7-mediated H3K18ac peptide deacetylation. The test is classed as biochemical. To be noted: for Rescue of H3K18 acetylation: dot blot screening, 50 μM; for EC50: read-out: Dot blot assay H3K18ac rescue EC50. From the text: To avoid the bias of the fluorescence assay, we also performed dot blot assays for the effects of natural compounds on SIRT7-mediated deacetylation of H3K18ac peptides in vitro (Figures S2A and S2B). In this system, SIRT7 mediated a dose-dependent deacetylation of H3K18ac (Figure 1D). […] Based on comparisons of all the candidates, we selected YZL-51N as the best for further investigation (Figure 1F). […] Thus, P. americana derived YZL-51N was confirmed as an identified SIRT7 inhibitor using parallel peptide-based screening platforms.
For dot blot assays, the reaction system containing 10 μg His-SIRT7, 0.5 mM NAD^+, 10 μM biotin-H3K18ac peptides and 50 μM potential compound was mixed and incubated at 37°C for 90 min. Samples were transferred to a polyvinylidene difluoride (PVDF) membrane, and then blocked with 5% skimmed milk. The blots were probed with H3K18ac primary antibody at RT for 2 h and then incubated with secondary antibody at RT for 1h. The bands were visualized using ECL substrates (Thermo Fisher, USA) on Tanon 5200SF Imaging System.

In test [4] the target is T1, SIRT7. As to the kind of experiment: Surface plasmon resonance (SPR) binding assay. As for the experimental part:
All SPR measurements were performed on Biacore T200 instrument (GE Healthcare) with running buffer (PBS+5% DMSO) at room temperature. The bacterially purified His-SIRT7 was covalently immobilized onto Series S Sensor Chip CM5 by a standard amino-coupling procedure in 10 mM sodium acetate (pH 5.5). Two-fold serial dilutions of YZL-51N or NAD^+ in 5% DMSO passed through the sensor chip at 30 μL/min for 120 s, followed by 240 s of dissociation flow. The KD value was calculated based on the concentration dependence of the observed steady-state response using Biacore T200 Evaluation software Version 1.0 (GE Healthcare).
(In general: Surface plasmon resonance follows binding to a sensor surface in real time, without labels.)

The target of test [5] is T1, SIRT7. The experiment in a line: Fluor de Lys (FDL) SIRT7 deacetylase assay. In kind it is biochemical. To be noted: 2 mM NAM treatment.
For test [6], the system named is EZH2. Also on record: method as in PMID 23023262. To be noted: EZH2 over EZH1 ref 52; cited from earlier work.

Where “and” joins values, the source holds several entries; their conditions need not be identical. Equal entries are not always repeated. Where two headings read alike, the source gives them in different places. Where only a bound is given, the exact number is not on record here.

`COc1cc([C@@H]2c3cc4c(cc3[C@@H](O[C@@H]3O[C@@H]5CO[C@@H](C)O[C@H]5[C@H](O)[C@H]3O)[C@H]3COC(=O)[C@H]23)OCO4)cc(OC)c1O` [etoposide, reference compound]: the “Cell proliferation (%, Mean ± SD)” value in test [1] (single agent 5 μM) was 92.7 ± 4.1%; in test [1] (single agent 10 μM) it was 82.5 ± 6.0%; in test [1] (single agent 20 μM), 73.5 ± 6.0%; in test [1] (single agent 40 μM) it was 48.5 ± 2.4%; in test [1] (single agent 80 μM), 27.0 ± 1.9%.

As to `O=C(O)/C(=C\C(=O)c1ccc(O)c(O)c1)c1ccc(O)c(O)c1` [compound 7], in test [2], the inhibition at 50 µM is 52.7% and the “Dose-dependent inhibition of SIRT7” value is on record as “did not show a dose-dependent inhibition”. Further, the IC50 in test [2] (10 μM peptide) is > 30 µM. Further, in test [3], the “Rescue of H3K18 acetylation” value is “rescued H3K18 acetylation” and the half-maximal effective concentration (EC50) came out at 32 µM.

`NC(=O)c1ccc[n+]([C@@H]2O[C@H](COP(=O)([O-])OP(=O)(O)OC[C@H]3O[C@@H](n4cnc5c(N)ncnc54)[C@H](O)[C@@H]3O)[C@@H](O)[C@H]2O)c1` [NAD^+]: the “Weaker affinity to SIRT7 than YZL-51N” value in test [4] is recorded as 200 fold. In addition, the Kd in test [4] (immobilized His-SIRT7) was > 200 µM.

For the molecule `COc1ccc(C(C)=O)cc1OC` [compound 1], in test [2], the inhibition at 50 µM amounted to 47.5% and the “Dose-dependent inhibition of SIRT7” value is reported as “did not show a dose-dependent inhibition”.

For the molecule `COC(=O)/C(=C\C(=O)c1ccc(OC)c(OC)c1)c1ccc(OC)c(OC)c1` [compound 6], the inhibition at 50 µM in test [2] was 12.3%. Moreover, in test [3], the “Rescue of H3K18 acetylation” value was “rescued H3K18 acetylation” and the concentration giving a half-maximal response (EC50) was 70.2 µM.

Regarding `NC(=O)c1cccnc1` [NAM, nicotinamide, reference compound], the half-inhibitory concentration (IC50) in test [2] (0-30 mM NAM) is 2290 µM and ~2290 µM. Further, in test [5], the inhibition at 2000 µM stood at 44.4%.

Turning to `Cc1cc(C)c(CNC(=O)c2cc(-c3ccc(CN4CCOCC4)cc3)cc3c2cnn3C2CCCC2)c(=O)[nH]1` [EPZ005687], in test [6], the “Selectivity against EZH1” value is 50 fold.

One may read the inhibition as the share of the control response that was lost under treatment. Broadly, the IC50 is the concentration that gives 50% inhibition. The EC50 is the midpoint of the concentration-response curve. For orientation: Kd means the concentration at which binding is half-saturated. Higher therefore signals lower affinity.
